Where only a bound is given, the exact number is not on record here.

As a reminder, the IC50 is the midpoint of a concentration-inhibition curve.

T2 sequence (O75116 whole entry): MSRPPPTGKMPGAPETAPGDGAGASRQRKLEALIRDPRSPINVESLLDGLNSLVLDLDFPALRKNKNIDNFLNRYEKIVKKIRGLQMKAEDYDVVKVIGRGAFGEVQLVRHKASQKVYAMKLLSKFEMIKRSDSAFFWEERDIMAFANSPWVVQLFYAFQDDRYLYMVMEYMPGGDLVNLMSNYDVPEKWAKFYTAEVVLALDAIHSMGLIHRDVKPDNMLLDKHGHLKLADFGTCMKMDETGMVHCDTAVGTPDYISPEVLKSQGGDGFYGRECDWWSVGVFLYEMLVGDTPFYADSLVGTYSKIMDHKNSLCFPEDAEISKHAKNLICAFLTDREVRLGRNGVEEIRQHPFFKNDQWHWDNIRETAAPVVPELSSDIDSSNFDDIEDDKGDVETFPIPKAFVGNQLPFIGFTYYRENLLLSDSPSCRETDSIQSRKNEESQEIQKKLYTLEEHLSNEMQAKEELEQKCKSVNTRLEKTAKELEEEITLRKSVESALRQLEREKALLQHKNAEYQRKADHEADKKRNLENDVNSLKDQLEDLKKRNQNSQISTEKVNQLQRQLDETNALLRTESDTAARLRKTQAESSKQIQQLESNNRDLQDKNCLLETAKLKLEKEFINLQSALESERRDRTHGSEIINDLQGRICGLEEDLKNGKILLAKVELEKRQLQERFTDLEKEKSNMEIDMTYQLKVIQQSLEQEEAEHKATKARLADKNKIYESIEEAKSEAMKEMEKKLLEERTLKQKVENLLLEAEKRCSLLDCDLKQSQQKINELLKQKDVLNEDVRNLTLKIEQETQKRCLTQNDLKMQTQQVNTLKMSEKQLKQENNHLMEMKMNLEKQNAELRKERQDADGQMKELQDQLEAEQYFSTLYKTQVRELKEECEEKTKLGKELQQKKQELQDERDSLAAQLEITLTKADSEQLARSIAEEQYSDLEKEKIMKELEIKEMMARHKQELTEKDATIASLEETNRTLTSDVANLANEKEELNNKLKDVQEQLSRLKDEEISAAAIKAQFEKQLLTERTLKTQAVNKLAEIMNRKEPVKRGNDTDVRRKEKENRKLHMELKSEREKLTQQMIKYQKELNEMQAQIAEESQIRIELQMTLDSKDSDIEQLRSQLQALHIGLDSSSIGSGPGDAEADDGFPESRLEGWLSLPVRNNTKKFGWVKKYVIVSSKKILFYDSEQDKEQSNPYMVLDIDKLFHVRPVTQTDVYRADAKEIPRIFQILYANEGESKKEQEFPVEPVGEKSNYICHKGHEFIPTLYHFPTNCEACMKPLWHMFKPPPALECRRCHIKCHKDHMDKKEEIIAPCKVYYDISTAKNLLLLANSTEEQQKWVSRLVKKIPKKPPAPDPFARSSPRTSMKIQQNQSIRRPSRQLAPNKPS

The target of one assay is T1, ROCK II (Homo sapiens, UniProt O75116).
T1 construct: purchased Proqinase
T1 sequence (O75116 whole entry): as above
The assay is described as follows: ROCK II kinase inhibition, Method 1 Proqinase setup (33P radioisotopic protein kinase assay). Type of assay: biochemical. Conditions: 33P radioisotopic assay, 1 μM ATP, read-out: IC50 Meth. 1. The procedure:
A ^33P radioisotopic protein kinase assay is used to determine the IC50 for inhibiting ROCK II. A final 50 μl reaction cocktail, containing 60 mM HEPES-NaOH (pH 7.5), 3 mM MgCl2, 3 mM MnCl2, 3 μM Na-orthovanadate, 1.2 mM DTT, 1 μM ATP, 50 μg/ml PEG20.000, 1% (v/v) DMSO, 1 μM ATP (approx. 3×10^5 cpm ^33P-γ-ATP), the substrate (Substrate: S6 peptide—2000 ng/well) and recombinant protein kinase (0.5 nM-2.5 ng/well) is mixed on a shaker and incubated at 30° C. for 80 minutes. The reaction is stopped by the addition of 50 μl of a 2% solution of H3PO4 and mixed on a shaker. After washing twice with 200 μl of a 0.9% solution of NaCl, the dry plate is counted.
Take “2′-Aminomethyl-5′- (pyridin-4-ylcarbamoyl)- biphenyl-3-carboxylic acid 2-methoxy-propyl ester [Compound 42]”: the IC50 was 0.1 to 1 µM. For `COC(=O)c1cccc(-c2cc(C(=O)Nc3ccncc3)ccc2CN)c1` [Compound 1, 2′-Aminomethyl-5′-(pyridin-4-ylcarbamoyl)-biphenyl-3-carboxylic acid methyl ester], the IC50 was below 0.1 µM. With `COC(=O)c1ccc(-c2cc(C(=O)Nc3ccncc3)ccc2CN)cc1` [Compound 2, 2′-Aminomethyl-5′-(pyridin-4-ylcarbamoyl)-biphenyl-4-carboxylic acid methyl ester], the IC50 is 1 to 10 µM. On the same count and under the same terms, to `CCOC(=O)c1cccc(-c2cc(C(=O)Nc3ccncc3)ccc2CN)c1` [Compound 7, 2′-Aminomethyl-5′-(pyridin-4-ylcarbamoyl)-biphenyl-3-carboxylic acid ethyl ester] belongs 0.1 to 1 µM; to `CCCOC(=O)c1cccc(-c2cc(C(=O)Nc3ccncc3)ccc2CN)c1` [Compound 10, 2′-Aminomethyl-5′-(pyridin-4-ylcarbamoyl)-biphenyl-3-carboxylic acid propyl ester], 0.1 to 1 µM; to `CCCCOC(=O)c1cccc(-c2cc(C(=O)Nc3ccncc3)ccc2CN)c1` [Compound 14, 2′-Aminomethyl-5′-(pyridin-4-ylcarbamoyl)-biphenyl-3-carboxylic acid butyl ester], 0.1 to 1 µM. The same measure, in the same setting: to `CCCCCOC(=O)c1cccc(-c2cc(C(=O)Nc3ccncc3)ccc2CN)c1` [Compound 15, 2′-Aminomethyl-5′-(pyridin-4-ylcarbamoyl)-biphenyl-3-carboxylic acid pentyl ester] belongs 0.1 to 1 µM. For the compound `CCCCCCOC(=O)c1cccc(-c2cc(C(=O)Nc3ccncc3)ccc2CN)c1` [Compound 17, 2′-Aminomethyl-5′-(pyridin-4-ylcarbamoyl)-biphenyl-3-carboxylic acid hexyl ester], the IC50 is 0.1 to 1 µM.

Take `CC(C)OC(=O)c1cccc(-c2cc(C(=O)Nc3ccncc3)ccc2CN)c1` [Compound 26, 2′-Aminomethyl-5′-(pyridin-4-ylcarbamoyl)-biphenyl-3-carboxylic acid isopropyl ester]: the IC50 lay in the range of 0.1 to 1 µM. In the case of `NCc1ccc(C(=O)Nc2ccncc2)cc1-c1cccc(C(=O)OC2CCC2)c1` [Compound 31, 2′-Aminomethyl-5′-(pyridin-4-ylcarbamoyl)-biphenyl-3-carboxylic acid cyclobutyl ester], the IC50 lay in the range of 0.1 to 1 µM. Same read-out and setting: for `NCc1ccc(C(=O)Nc2ccncc2)cc1-c1cccc(C(=O)OC2CCCC2)c1` [Compound 32, 2′-Aminomethyl-5′-(pyridin-4-ylcarbamoyl)-biphenyl-3-carboxylic acid cyclopentyl ester] the value was 0.1 to 1 µM. As to `NCc1ccc(C(=O)Nc2ccncc2)cc1-c1cccc(C(=O)OC2CCCCC2)c1` [Compound 35, 2′-Aminomethyl-5′-(pyridin-4-ylcarbamoyl)-biphenyl-3-carboxylic acid cyclohexyl ester], the IC50 was in the range of 0.1 to 1 µM. The same measure, in the same setting: to `NCc1ccc(C(=O)Nc2ccncc2)cc1-c1cccc(C(=O)OCC2CCCC2)c1` [Compound 38, 2′-Aminomethyl-5′-(pyridin-4-ylcarbamoyl)-biphenyl-3-carboxylic acid cyclopentylmethyl ester] belongs 0.1 to 1 µM. `NCc1ccc(C(=O)Nc2ccncc2)cc1-c1cccc(C(=O)OCC2CCCCC2)c1` [Compound 39, 2′-Aminomethyl-5′-(pyridin-4-ylcarbamoyl)-biphenyl-3-carboxylic acid cyclohexylmethyl ester]: the IC50 fell in the range of 0.1 to 1 µM.

For `COCCOC(=O)c1cccc(-c2cc(C(=O)Nc3ccncc3)ccc2CN)c1` [Compound 41, 2′-Aminomethyl-5′-(pyridin-4-ylcarbamoyl)-biphenyl-3-carboxylic acid 2-methoxy-ethyl ester], the IC50 was in the range of 0.1 to 1 µM. Same read-out and setting: for `NCc1ccc(C(=O)Nc2ccncc2)cc1-c1cccc(C(=O)OC2CCOCC2)c1` [Compound 43, 2′-Aminomethyl-5′-(pyridin-4-ylcarbamoyl)-biphenyl-3-carboxylic acid tetrahydro-pyran-4-yl ester] the value was 0.1 to 1 µM; for `CN1CCC(OC(=O)c2cccc(-c3cc(C(=O)Nc4ccncc4)ccc3CN)c2)CC1` [Compound 48, 2′-Aminomethyl-5′-(pyridin-4-ylcarbamoyl)-biphenyl-3-carboxylic acid 1-methyl-piperidin-4-yl ester], 0.1 to 1 µM. Turning to `NCc1ccc(C(=O)Nc2ccncc2)cc1-c1cccc(C(=O)Oc2ccccc2F)c1` [Compound 53, 2′-Aminomethyl-5′-(pyridin-4-ylcarbamoyl)-biphenyl-3-carboxylic acid 2-fluoro-phenyl ester], the IC50 was in the range of 0.1 to 1 µM. On to `NCc1ccc(C(=O)Nc2ccncc2)cc1-c1cccc(C(=O)OCC2COc3ccccc3O2)c1` (stereo not shown) [Compound 55, 2′-Aminomethyl-5′-(pyridin-4-ylcarbamoyl)-biphenyl-3-carboxylic acid 2,3-dihydro-benzo[1,4]dioxin-2-ylmethyl ester], for which the IC50 was below 0.1 µM. For `COC(=O)CNC(=O)c1cccc(-c2cc(C(=O)Nc3ccncc3)ccc2CN)c1` [Compound 102, {[2′-Aminomethyl-5′-(pyridin-4-ylcarbamoyl)-biphenyl-3-carbonyl]-amino}-acetic acid methyl ester], the IC50 is below 0.1 µM. On the same count and under the same terms, to `NCc1ccc(C(=O)Nc2ccncc2)cc1-c1cccc(C(=O)NCC(N)=O)c1` [Compound 106, 6-Aminomethyl-biphenyl-3,3′-dicarboxylic acid 3′-carbamoylmethyl-amide 3-pyridin-4-ylamide] belongs below 0.1 µM; to `NCc1ccc(C(=O)Nc2ccncc2)cc1-c1cccc(C(=O)NCCC2COC(=O)O2)c1` (stereo not shown) [Compound 113, 6-Aminomethyl-biphenyl-3,3′-dicarboxylic acid 3′-{[2-(2-oxo-[1,3]dioxolan-4-yl)-ethyl]-amide} 3-pyridin-4-ylamide], 0.1 to 1 µM; to `COC(=O)C1CCCCN1C(=O)c1cccc(-c2cc(C(=O)Nc3ccncc3)ccc2CN)c1` (stereo not shown) [Compound 122, 1-[2′-Aminomethyl-5′-(pyridin-4-ylcarbamoyl)-biphenyl-3-carbonyl]-piperidine-2-carboxylic acid methyl ester], 1 to 10 µM. On the same count and under the same terms, for `COC(=O)C1CCN(C(=O)c2cccc(-c3cc(C(=O)Nc4ccncc4)ccc3CN)c2)CC1` [Compound 124, 1-[2′-Aminomethyl-5′-(pyridin-4-ylcarbamoyl)-biphenyl-3-carbonyl]-piperidine-4-carboxylic acid methyl ester] the value was 1 to 10 µM; for `COC(=O)C1CCN(C(=O)c2cccc(-c3cc(C(=O)Nc4ccncc4)ccc3CN)c2)C1` (stereo not shown) [Compound 127, 1-[2′-Aminomethyl-5′-(pyridin-4-ylcarbamoyl)-biphenyl-3-carbonyl]-pyrrolidine-3-carboxylic acid methyl ester], 1 to 10 µM.

Another assay addresses T2, ROCKα/ROCKII (Homo sapiens, UniProt O75116).
T2 construct: purchased Upstate Biotechnology 14-451
The assay is described as follows: ROCK inhibition, Method 2 fluorescence polarization (FP) assay, ROCK IMAP Kit. Type of assay: biochemical. To be noted: 10 μM ATP, read-out: IC50 Meth. 2. As to the method: The inhibition assays were performed with a fluorescence polarization (FP) assay using the commercially available ROCK IMAP Kit from Molecular Devices (Product ID. No. R8093), essentially in accordance with the protocol supplied by the manufacturer. […] The enzyme mix ROCKα/ROCKII was obtained from Upstate Biotechnology (Product ID No 14-451).
In summary, all compounds were screened in the wells of a 384 well plate for enzymatic inhibition with concentrations varying from 100 μM to 0.3 nM using a stepwise 3 (or 2)-fold dilution.
To perform the assay, 1 μl of a solution of the compound to be tested in DMSO (at each concentration) was added to 2 μl of a solution of the enzyme in 10 mM Tris-HCl, 10 mM MgCl2, 0.1% BSA, 0.05% NaN3, pH 7,2. The final concentration of the enzyme was 2.6 nM.
After incubating for 30 minutes at RT, 2 μl of a mixture of ATP and the protein substrate in 10 mM Tris-HCl, 10 mM MgCl2, 0.1% BSA, 0.05% NaN3, pH 7.2 was added. The final concentration of the ATP was 10 μM and final concentration of protein substrate was 0.2 μM.
After incubating for 60 minutes at RT, 12 μl of the IMAP Binding Solution (mix of the IMAP Binding Buffer A (1×) and the IMAP Binding Reagent (from the ROCK IMAP kit)) was added.
The mixture thus obtained (total volume: 17 μl) was incubated for 60 minutes at RT, upon which the fluorescence polarization was measured using an automated plate reader (Perkin Elmer, Model Envision 2100-0010 HTS) with FP filters: excitation filter FITC FP 480 and emission filters FITC FP P-pol 535 and FITC FP S-pol 535 (Perkin-Elmer). The results were fitted to a curve using the XL-Fit algorithm and IC50 values were calculated for each fitted curve, again using the XL-Fit algorithm.
(In general: Fluorescence polarisation rises when a labelled molecule tumbles more slowly, as on binding a larger partner.)
On to `CC(N)c1ccc(C(=O)Nc2ccncc2)cc1-c1cccc(NC(=O)CC2CC(=O)Oc3ccccc32)c1` (stereo not shown) [Compound 155, 6-(1-Amino-ethyl)-3′-[2-(2-oxo-chroman-4-yl)-acetylamino]-biphenyl-3-carboxylic acid pyridin-4-ylamide], for which the IC50 is below 0.1 µM.

Take `CC(N)c1ccc(C(=O)Nc2ccncc2)cc1-c1cccc2[nH]c(C(=O)Oc3ccccc3)cc12` (stereo not shown) [Compound 173, 4-[2-(1-Amino-ethyl)-5-(pyridin-4-ylcarbamoyl)-phenyl]-1H-indole-2-carboxylic acid phenyl ester]: the IC50 lay in the range of 0.1 to 1 µM. Turning to `CCCOC(=O)c1cccc(-c2cc(C(=O)Nc3ccncc3F)ccc2CN)c1` [Compound 174], the concentration for half-maximal inhibition (IC50) is 0.1 to 1 µM. Same read-out and setting: to `NCc1ccc(C(=O)Nc2ccncc2F)cc1-c1cccc(C(=O)Oc2ccccc2)c1` [Compound 175] belongs below 0.1 µM; to `CC(N)c1ccc(C(=O)Nc2ccncc2)cc1-c1cccc(C(=O)Oc2ccc3c(c2)OC(=O)CC3)c1` (stereo not shown) [Compound 176], below 0.1 µM. The same measure, in the same setting: for `CC(N)c1ccc(C(=O)Nc2ccncc2F)cc1-c1cccc(OCCSC2CCOC2=O)c1` (stereo not shown) [Compound 177] the value was 0.1 to 1 µM.
